Test results reported in patent US9434711B2 (Janssen Pharmaceutica, NV, priority 2007, dated 2016).

Target: canine TRPM8 (Canis lupus familiaris, UniProt Q1A7N1)
Test: In Vitro Canine TRPM8 Functional Assay (Ca2+ fluorescence, icilin activation)
Format: cell-based
Details: for IC50: HEK293 cells stably expressing canine TRPM8, icilin activation, eight-point dose-response, read-out: IC50; for inhibition at 0.2 µM / % Inh @ 0.2 (μM): compound at 0.2 μM, canine TRPM8, icilin activation; for inhibition at 0.2 µM: read-out: % Inh @ 0.2
Outline: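 Eight-point dose-response curves in quadruplicate gave EC50 or IC50 values from a Ca2+-sensitive dye assay in HEK293 cells stably carrying canine TRPM8. Icilin, dosed near its 80% maximal level, followed a 5 min compound exposure.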

Chain of canine TRPM8 (Q1A7N1 1-1104): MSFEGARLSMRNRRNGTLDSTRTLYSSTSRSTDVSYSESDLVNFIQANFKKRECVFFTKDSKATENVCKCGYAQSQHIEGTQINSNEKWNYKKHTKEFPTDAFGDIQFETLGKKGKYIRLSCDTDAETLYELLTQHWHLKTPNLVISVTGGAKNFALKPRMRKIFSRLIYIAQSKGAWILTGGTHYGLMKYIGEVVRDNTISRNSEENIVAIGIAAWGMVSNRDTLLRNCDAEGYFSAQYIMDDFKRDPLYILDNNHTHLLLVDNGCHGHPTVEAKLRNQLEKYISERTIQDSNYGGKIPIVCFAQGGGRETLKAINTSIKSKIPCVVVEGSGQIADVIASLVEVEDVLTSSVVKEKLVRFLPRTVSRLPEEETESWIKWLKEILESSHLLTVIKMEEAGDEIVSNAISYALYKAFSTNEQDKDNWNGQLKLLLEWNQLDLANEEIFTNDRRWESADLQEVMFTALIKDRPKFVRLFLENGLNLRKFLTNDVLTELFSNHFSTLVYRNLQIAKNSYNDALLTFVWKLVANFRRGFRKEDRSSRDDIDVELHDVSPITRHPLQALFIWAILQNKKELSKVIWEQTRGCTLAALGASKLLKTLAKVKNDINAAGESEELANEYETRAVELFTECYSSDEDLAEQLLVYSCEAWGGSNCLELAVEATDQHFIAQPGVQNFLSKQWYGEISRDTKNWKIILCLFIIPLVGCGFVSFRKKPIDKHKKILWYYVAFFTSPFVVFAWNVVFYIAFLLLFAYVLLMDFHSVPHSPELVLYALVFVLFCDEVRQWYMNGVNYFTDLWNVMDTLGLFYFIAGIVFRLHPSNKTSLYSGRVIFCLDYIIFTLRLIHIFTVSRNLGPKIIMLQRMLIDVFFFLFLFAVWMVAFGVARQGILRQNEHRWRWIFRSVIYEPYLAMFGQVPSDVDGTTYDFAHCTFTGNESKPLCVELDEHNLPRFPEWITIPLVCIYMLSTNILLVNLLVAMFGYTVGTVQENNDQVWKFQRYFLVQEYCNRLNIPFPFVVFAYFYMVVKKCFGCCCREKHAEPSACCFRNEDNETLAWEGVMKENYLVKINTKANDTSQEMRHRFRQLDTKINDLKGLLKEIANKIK

Row | Compound | IC50 | inhibition at 0.2 µM | % Inh @ 0.2 (μM)
1 | Cc1c(N(Cc2c(F)c(F)c(F)c(F)c2F)S(=O)(=O)c2ccc(C(=O)O)cc2)sc2ccccc12 [Compound 493, N-(3-Methyl-benzo[b]thiophen-2-yl)-N-(2,3,4,5,6-pentafluoro-benzyl)-4-carboxy-benzenesulfonamide] | 0.8 nM | 101% | –
2 | Cc1c(N(Cc2ccc(S(=O)(=O)C(F)(F)F)cc2)S(=O)(=O)c2ccc(C(=O)O)cc2)sc2ccccc12 [Compound 494, N-(3-Methyl-benzo[b]thiophen-2-yl)-N-(4-trifluoromethylsulfone-benzyl)-4-carboxy-benzenesulfonamide] | 0.9 nM | – | 101%
3 | Cc1c(N(Cc2cccnc2)S(=O)(=O)c2ccc(C(=O)O)cc2)sc2ccccc12 [Compound 495, N-(3-Methyl-benzo[b]thiophen-2-yl)-N-(pyridin-3-ylmethyl)-4-carboxy-benzenesulfonamide] | 55 nM | – | 98%
4 | CCCCN(c1sc2ccccc2c1NC(C)=O)S(=O)(=O)c1ccc(C(=O)OC)cc1 [Compound 500, N-(3-Acetylamino-benzo[b]thiophen-2-yl)-N-(butyl)-4-carbomethoxy-benzenesulfonamide] | – | 15% | –
5 | O=C(O)c1ccc(S(=O)(=O)N(Cc2ccc(F)c(C(F)(F)F)c2)c2sc3ccccc3c2C2CCCC2)cc1 [Compound 502, N-(3-Cyclopentyl-benzo[b]thiophen-2-yl)-N-(4-fluoro-3-trifluoromethyl-benzyl)-4-carboxy-benzenesulfonamide] | 10 nM | 100% | –
6 | CS(=O)(=O)Nc1c(N(Cc2ccc(F)c(C(F)(F)F)c2)S(=O)(=O)c2ccccc2)sc2ccccc12 [Compound 508, N-(4-Fluoro-3-trifluoromethyl-benzyl)-N-(3-methanesulfonylamino-benzo[b]thiophen-2-yl)-benzenesulfonamide] | – | 47% | –
7 | CC(=O)Nc1c(N(Cc2ccc(F)c(C(F)(F)F)c2)S(=O)(=O)c2ccccc2)sc2ccccc12 [Compound 509, N-{2-[Benzenesulfonyl-(4-fluoro-3-trifluoromethyl-benzyl)-amino]-benzo[b]thiophen-3-yl}-acetamide] | 32 nM | 100% | –
8 | Cc1c(N(Cc2ccc(F)c(C(F)(F)F)c2)S(=O)(=O)CCC(=O)O)sc2ccccc12 [Compound 510, N-(4-Fluoro-3-trifluoromethyl-benzyl)-N-(3-methyl-benzo[b]thiophen-2-yl)-2-carboxy-ethanesulfonamide] | 11 nM | 102% | –
9 | CCCCN(c1sc2ccccc2c1C(C)(C)O)S(=O)(=O)c1ccc(C(=O)OC)cc1 [Compound 516, N-(Butyl)-N-(3-(1-hydroxy-1-methyl-ethyl)-benzo[b]thiophen-2-yl)-4-carbomethoxy-benzenesulfonamide] | 19 nM | 102% | –
10 | Cc1c(N(Cc2cc(F)c(F)c(F)c2)S(=O)(=O)c2ccc(C(=O)O)cc2)sc2ccccc12 [Compound 517, N-(3-Methyl-benzo[b]thiophen-2-yl)-N-(3,4,5-trifluoro-benzyl)-4-carboxy-benzenesulfonamide] | 2 nM | 102% | –
11 | Cc1c(N(Cc2ccc(C(F)(F)F)cc2)S(=O)(=O)c2ccc(C(=O)O)cc2)sc2ccccc12 [Compound 518, N-(3-Methyl-benzo[b]thiophen-2-yl)-N-(4-trifluoromethyl-benzyl)-4-carboxy-benzenesulfonamide] | 0.7 nM | 101% | –
12 | Cc1c(N(Cc2cc(C(F)(F)F)ccc2F)S(=O)(=O)c2ccc(C(=O)O)cc2)sc2ccccc12 [Compound 519, N-(3-Methyl-benzo[b]thiophen-2-yl)-N-(2-fluoro-5-trifluoromethyl-benzyl)-4-carboxy-benzenesulfonamide] | 6 nM | 102% | –
13 | Cc1c(N(Cc2cc(Cl)ccc2Cl)S(=O)(=O)c2ccc(C(=O)O)cc2)sc2ccccc12 [Compound 520, N-(3-Methyl-benzo[b]thiophen-2-yl)-N-(2,5-dichloro-benzyl)-4-carboxy-benzenesulfonamide] | – | 102% | –

Further lines, with some results ahead:

Row | IC50 | inhibition at 0.2 µM | Compound | % Inh @ 0.2 (μM)
14 | – | 41% | O=[N+]([O-])c1ccc(S(=O)(=O)N(CCC(F)(F)F)c2cc3ccccc3s2)cc1 [Compound 498, N-(Benzo[b]thiophen-2-yl)-4-nitro-N-(3,3,3-trifluoro-propyl)-benzenesulfonamide] | –
15 | 15 nM | 101% | Nc1ccc(S(=O)(=O)N(CCC(F)(F)F)c2cc3ccccc3s2)cc1 [Compound 499, 4-Amino-N-(benzo[b]thiophen-2-yl)-N-(3,3,3-trifluoro-propyl)-benzenesulfonamide] | –
16 | 47 nM | 96% | CCCCN(c1sc2ccccc2c1C(C)=O)S(=O)(=O)c1ccc(Br)cc1 [Compound 503, N-(3-Acetyl-benzo[b]thiophen-2-yl)-N-(butyl)-4-bromo-benzenesulfonamide] | –
17 | 18 nM | 101% | COC(=O)c1ccc(S(=O)(=O)N(CCC(F)(F)F)c2sc3ccccc3c2C(C)(C)O)cc1 [Compound 504, N-(3-(1-Hydroxy-1-methyl-ethyl)-benzo[b]thiophen-2-yl)-N-(3,3,3-trifluoro-propyl)-4-carbomethoxy-benzenesulfonamide] | –
18 | 31 nM | 100% | CCCCN(c1sc2ccccc2c1C(C)(C)O)S(=O)(=O)c1ccc(Br)cc1 [Compound 506, N-(Butyl)-N-(3-(1-hydroxy-1-methyl-ethyl)-benzo[b]thiophen-2-yl)-4-bromo-benzenesulfonamide] | –
19 | 34 nM | 92% | CS(=O)(=O)Nc1ccc(S(=O)(=O)N(CCC(F)(F)F)c2cc3ccccc3s2)cc1 [Compound 507, N-(Benzo[b]thiophen-2-yl)-4-methanesulfonylamino-N-(3,3,3-trifluoro-propyl)-benzenesulfonamide] | –
20 | 3 nM | 101% | O=c1[nH]c(-c2ccc(S(=O)(=O)N(Cc3ccc(F)c(C(F)(F)F)c3)c3sc4ccccc4c3Br)cc2)no1 [Compound 511, N-(3-Bromo-benzo[b]thiophen-2-yl)-N-(4-fluoro-3-trifluoromethyl-benzyl)-4-(5-oxo-4,5-dihydro-[1,2,4]oxadiazol-3-yl)-benzenesulfonamide] | –
21 | 4 nM | 102% | O=c1[nH]c(-c2ccc(S(=O)(=O)N(Cc3ccc(F)c(C(F)(F)F)c3)c3sc4ccccc4c3Cl)cc2)no1 [Compound 512, N-(3-Chloro-benzo[b]thiophen-2-yl)-N-(4-fluoro-3-trifluoromethyl-benzyl)-4-(5-oxo-4,5-dihydro-[1,2,4]oxadiazol-3-yl)-benzenesulfonamide] | –
22 | 21 nM | 101% | O=c1[nH]c(-c2ccc(S(=O)(=O)N(CCCC(F)(F)F)c3cc4ccccc4s3)cc2)no1 [Compound 513, N-(Benzo[b]thiophen-2-yl)-N-(4,4,4-trifluoro-butyl)-4-(5-oxo-4,5-dihydro-[1,2,4]oxadiazol-3-yl)-benzenesulfonamide] | –
23 | 46 nM | 100% | O=c1[nH]c(-c2ccc(S(=O)(=O)N(CCCC(F)(F)F)c3sc4ccccc4c3Br)cc2)no1 [Compound 514, N-(3-Bromo-benzo[b]thiophen-2-yl)-N-(4,4,4-trifluoro-butyl)-4-(5-oxo-4,5-dihydro-[1,2,4]oxadiazol-3-yl)-benzenesulfonamide] | –
